Patent US20110172297A1, “Oxopiperdinyl And Pyranyl Sulfonamides and Pharmaceutical Compositions Thereof” (Pfizer Inc, priority 2008, published 2011)

System: AMPA receptors
Assay: AMPA ES cell FLIPR screen (AMPA Potentiator Assay)
Format: cell-based
Conditions: murine ES cell-derived neurons, FLIPR Fluo-4 calcium signal, 32 uM AMPA challenge; values marked * are the geometric mean of 2-9 EC50 determinations
Method: The murine ES cell line used was E14-Sx1-16C, which has a targeted mutation in the Sox1 gene, a neuroectodermal marker, that offers G418 resistance when the Sox1 gene is expressed (Stem Cell Sciences). ES cells were maintained undifferentiated as previously described (Roach). […] ES cells were plated on gelatin-coated dishes (BD Biosciences), the media was changed daily and the cells were dissociated with 0.05% Trypsin EDTA (Invitrogen) every other day.
Embryoid Body Formation: Prior to embryoid body (EB) formation the ES cells were weaned from FBS onto Knockout Serum Replacement (KSR) (Invitrogen). To form EBs, ES cells were dissociated into a single cell suspension, then 3×10^6 cells were plated in bacteriology dishes (Nunc 4014) and grown as a suspension culture in NeuroEB-I medium that consisted of Knockout™ D-MEM (Invitrogen), supplemented with 10% KSR (Invitrogen), 0.2 mM L-Glutamine (Invitrogen), 0.1 mM MEM non-essential amino acids (Invitrogen), 30 μg/ml Gentamicin (Invitrogen), 1000 u/ml ESGRO (Chemicon), 0.1 mM 2-Mercaptoethanl (Sigma) and 150 ng/ml Transferrin (Invitrogen). The plates were put on a Stovall Belly Button shaker in an atmospheric oxygen incubator. The media was changed on day 2 of EB formation with NeuroEB-I and on day 4 with NeuroEB-II (NeuroEB-I plus 1 μg/ml mNoggin [R&D Systems]).
Neuronal Precursor Selection and Expansion: On day 5 of EB formation, EBs were dissociated with 0.05% Trypsin EDTA, and 4×10^6cells/100 mm dish were plated on Laminin coated tissue culture dishes in Neuroll-G418 medium that consisted of a base medium of a 1:1 mixture of D-MEM/F12 supplemented with N2 supplements and NeuroBasal Medium supplemented with B27 supplement and 0.1 mM L-Glutamine (all from Invitrogen). The base medium was then supplemented with 10 ng/ml bFGF (Invitrogen), 1 μg/ml mNoggin, 500 ng/ml SHH—N, 100 ng/ml FGF-8b (R&D Systems), 1 μg/ml Laminin and 200 μg/ml G418 (Invitrogen) for selection of neuronal precursors expressing Sox-1. The plates were put in an incubator that contained 2% Oxygen and were maintained in these conditions. During the 6-day selection period, the Neuroll media was changed daily. On day 6, the surviving neuronal precursor foci were dissociated with 0.05% Trypsin EDTA and the cells were plated at a density of 1.5×10^6 cells/100 mm Laminin coated dish in Neuroll-G418 medium. The cells were dissociated every other day for expansion, and prepared for Cryopreservation at passage 3 or 4. The crypreservation medium contained 50% KSR, 10% Dimethyl Sulfoxide (DMSO) (Sigma) and 40% Neurol-G418I medium. Neuronal precursors were crypreserved at a concentration of 4×10^6 cells/ml and 1 ml/cryovial in a controlled rate freezer overnight then transferred to an ultra-low freezer or liquid nitrogen for long-term storage.
Neuronal Differentiation: Cryopreserved ES cell-derived neuronal precursors were thawed by the rapid thaw method in a 37-degree water-bath. The cells were transferred from the cryovial to a 100 mm Laminin coated tissue culture dish that already contained Neuroll-G418 that had been equilibrated in a 2% Oxygen incubator. The media was changed with fresh Neuroll-G418 the next day. The cells were dissociated every other day as described above for expansion to generate enough cells to plate for the screen. For the screen, the cells were plated into 384-well poly-d-lysine coated tissue culture dishes (BD Biosciences) by the automated SelecT at a cell density of 6K cells/well in differentiation medium Neurolll that contained a 4:1 ratio of the NeuroBasalMedium/B27:D-MEM/F12/N2 supplemented with 1 μM cAMP (Sigma), 200 μM Ascorbic Acid (Sigma), 1 μg/ml Laminin (Invitrogen) and 10 ng/ml BDNF (R&D Systems). The plates were put in an incubator with 2% Oxygen and allowed to complete the differentiation process for 7 days. The cells could then be used over a 5-day period for the high throughput screen.
On the day of the assay, the FLIPR assay may be performed using the following methods: […]

Row | SMILES | EC50
1 | CC(C)S(=O)(=O)N[C@@H]1CCCO[C@H]1c1ccc(-c2ccccc2C#N)cc1 [Example 47, N-[(2S,3R)-2-(2′-cyanobiphenyl-4-yl)tetrahydro-2H-pyran-3-yl]propane-2-sulfonamide] | 20300 nM
2 | CC(C)S(=O)(=O)N[C@H]1CCCO[C@@H]1c1ccc(-c2ccc(C#N)s2)cc1 [Example 48, N-{(2R,3S)-2-[4-(5-cyano-2-thienyl)phenyl]tetrahydro-2H-pyran-3-yl}propane-2-sulfonamide] | 5640 nM
3 | CCOc1ccccc1-c1ccc([C@H]2NC(=O)CC[C@@H]2NS(=O)(=O)C(C)C)cc1 [Example 50, N-[(2R,3S)-2-(2′-ethoxybiphenyl-4-yl)-6-oxopiperidin-3-yl]propane-2-sulfonamide] | 1710 nM
4 | CC(C)S(=O)(=O)N[C@@H]1CCC(=O)N[C@H]1c1ccc(-c2ccc(C#N)s2)cc1 [Example 51, N-{(2S,3R)-2-[4-(5-cyano-2-thienyl)phenyl]-6-oxopiperidin-3-yl}propane-2-sulfonamide] | 1710 nM
5 | CC(C)S(=O)(=O)N[C@H]1CCC(=O)N[C@@H]1c1ccc(-c2ccc(C#N)s2)cc1 [Example 53, N-{(2R,3S)-2-[4-(5-cyano-2-thienyl)phenyl]-6-oxopiperidin-3-yl}propane-2-sulfonamide] | 2360 nM
6 | CC(C)S(=O)(=O)N[C@H]1COCC[C@H]1c1ccc(-c2ccccc2C#N)cc1 [Example 57, N-[(3R,4S)-4-(2′-cyanobiphenyl-4-yl)tetrahydro-2H-pyran-3-yl]propane-2-sulfonamide] | 748 nM
7 | CC(C)S(=O)(=O)N[C@@H]1COCC[C@@H]1c1ccc(-c2ccc(C#N)s2)cc1 [Example 58, N-{(3S,4R)-4-[4-(5-cyano-2-thienyl)phenyl]tetrahydro-2H-pyran-3-yl}propane-2-sulfonamide] | > 31600 nM
8 | CC(C)S(=O)(=O)N[C@@H]1COCC[C@@H]1c1ccc(-c2ccc(C#N)cc2)cc1 [Example 60, N-[(3S,4R)-4-(4′-cyanobiphenyl-4-yl)tetrahydro-2H-pyran-3-yl]propane-2-sulfonamide] | > 31600 nM
9 | CC(C)S(=O)(=O)N[C@H]1COCC[C@H]1c1ccc(-c2ccc(C#N)cc2)cc1 [Example 61, N-[(3R,4S)-4-(4′-cyanobiphenyl-4-yl)tetrahydro-2H-pyran-3-yl]propane-2-sulfonamide] | > 31600 nM
10 | CCOc1ccccc1-c1ccc([C@H]2CCOC[C@H]2NS(=O)(=O)C(C)C)cc1 [Example 62, N-[(3S,4R)-4-(2′-ethoxybiphenyl-4-yl)tetrahydro-2H-pyran-3-yl]propane-2-sulfonamide] | > 31600 nM
11 | CCOc1ccccc1-c1ccc([C@@H]2CCOC[C@@H]2NS(=O)(=O)C(C)C)cc1 [Example 63, N-[(3R,4S)-4-(2′-ethoxybiphenyl-4-yl)tetrahydro-2H-pyran-3-yl]propane-2-sulfonamide] | 669 nM

The next lines start with the values.

Row | EC50 | SMILES
12 | > 31600 nM | CC(C)S(=O)(=O)N[C@@H]1CCCO[C@H]1c1ccc(-c2ccc(C#N)s2)cc1 [Example 49, N-{(2S,3R)-2-[4-(5-cyano-2-thienyl)phenyl]tetrahydro-2H-pyran-3-yl}propane-2-sulfonamide]
13 | > 31600 nM | CC(C)S(=O)(=O)N[C@@H]1CCC(=O)N[C@H]1c1ccc(-c2ccccc2C#N)cc1 [Example 52, N-[(2S,3R)-2-(2′-cyanobiphenyl-4-yl)-6-oxopiperidin-3-yl]propane-2-sulfonamide]
14 | 2290 nM | CC(C)S(=O)(=O)N[C@H]1CCC(=O)N[C@@H]1c1ccc(-c2ccccc2C#N)cc1 [Example 54, N-[(2R,3S)-2-(2′-cyanobiphenyl-4-yl)-6-oxopiperidin-3-yl]propane-2-sulfonamide]
15 | > 31600 nM | CC(C)S(=O)(=O)N[C@H]1COCC[C@H]1c1ccc(-c2ccccc2)cc1 [Example 55, N-[(3R,4S)-4-biphenyl-4-yltetrahydro-2H-pyran-3-yl]propane-2-sulfonamide]
16 | > 31600 nM | CC(C)S(=O)(=O)N[C@@H]1COCC[C@@H]1c1ccc(-c2ccccc2C#N)cc1 [Example 56, N-[(3S,4R)-4-(2′-cyanobiphenyl-4-yl)tetrahydro-2H-pyran-3-yl]propane-2-sulfonamide]
17 | 2100 nM | CC(C)S(=O)(=O)N[C@H]1COCC[C@H]1c1ccc(-c2ccc(C#N)s2)cc1 [Example 59, N-{(3R,4S)-4-[4-(5-cyano-2-thienyl)phenyl]tetrahydro-2H-pyran-3-yl}propane-2-sulfonamide]
